Source: patent publication US9205046B2, “Enhanced stability of inverse thermal gelling composite hydrogels” (The Governing Council of the University of Toronto, priority 2005, dated 2015)
Entries after “also recorded” stand apart in the source; their conditions may differ.

Key:
[1] = In vitro drug release from HAMC hydrogels and composites; type: physicochemical; conditions: for burst release from PLGA particles in composite versus free particles: composite 2:3 HMW HAMC
Protocol: Release profiles of each particle encapsulated drug were obtained by depositing approximately 150 mg of drug loaded 2:3 HMW HAMC into polypropylene sample tubes, warming to 37° C., and adding 600 μL warm aCSF. […] Particle loads were typically 30-40 mg PLGA per gram of composite. […] All sample aliquots were immediately frozen and stored at −20° C. until analysis. […] Each sample was thawed immediately prior to assay and clear supernatant analyzed for dissolved drug.

[2] = Drug diffusivity in HMW HAMC; type: physicochemical; conditions: in 2:3 HMW HAMC
Text: The diffusivity of a given drug in HMW HAMC, D, was normalized to its diffusivity in water, Do, to determine the impact of HMW HAMC on molecular diffusion [N. A. Peppas, C. T. Reinhart, Solute diffusion in swollen membranes. 1. A new theory. J. Membr. Sci. 15 (3) (1983) 275-287. Approximations of D for NBQX, α-chymotrypsin, and IgG in HMW HAMC were estimated according to the one dimensional, unidirectional, thin film approximation for non-swelling samples at short times [J. Crank, The Mathematics of Diffusion, Clarendon Press, Oxford, 1956.]. Normalized diffusion coefficients were then determined with respect to previously reported values of Do according to:
[formula] Where Mt/M∞ is the cumulative mass of drug detected at time, t, divided by the total mass released and l is the sample thickness.
Approximately 100 mg of HAMC with a drug loading of 100-1000 μg/mL was deposited into a cylindrical sample tube to yield a gel with thickness of 0.3 cm and one exposed surface. Samples were warmed to 37° C. and combined with 900 μL of warm aCSF. The buffer was sampled with total replacement at 0.5, 1, 2, and 5 hours and analyzed and described below.

[3] = Characterization of drug loaded PLGA particles; type: physicochemical; conditions: laser diffraction or dynamic light scattering
Protocol: PLGA microparticle synthesis was optimized for each factor encapsulated and thus synthesis varied slightly for each factor, described below for EGF, dbcAMP, IgG and α-chymotrypsin. Microparticle size was determined by laser diffraction (Mastersizer 2000™, Malvern Instruments, Malvern, UK): nanoparticle size was determined by dynamic light scattering (Zetasizer Nano ZS™, Malvern Instruments). Encapsulation efficiency was defined as the fraction of drug detected per unit mass of particle compared to the theoretical maximum. Particle yield is the mass of recovered particulate PLGA adjusted for drug content, divided by the initial PLGA mass. Drug loading is the mass fraction of drug in the particles expressed as microgram of drug per milligram of particles.
EGF content was determined by degrading the PLGA in 1 M NaOH for 24 h at 37° C., centrifuging the resulting suspension and assaying the supernatant for total protein using the BCA assay.
dbcAMP content was determined by DCM/water solvent extraction. PLGA was dissolved in DCM and extracted 3×. Aqueous dbcAMP concentration was determined by UV absorbance at 273 nm on a Nanodrop ND-1000™ (Thermo Fisher Scientific).
Protein content was determined based on a method by Wong [Wong, H. M., Wang, J. J., and Wang, C, In Vitro Sustained Release of Human Immunoglobulin G from Biodegradable Microspheres. Ind. Eng. Chem. Res., 2001. 40: p. 933-948]. […]

[4] = system: mature blood vessels in the dorsal horns of the injured spinal cord; assay: Intrathecal FGF2 delivery with composite HAMC after compressive spinal cord injury, SMI-71 blood vessel count; type: in vivo, Sprague Dawley rats; conditions: rat, moderate compressive SCI at T2, 10 μl intrathecal composite 1:3 HMW HAMC with FGF2 PLGA nanoparticles, 28 days
Protocol: Physical hydrogel blends of hyaluronan (HA) and methyl cellulose (MC) were prepared in aCSF at 1 wt % 2600 kg/mol HA and 3 wt % 300 kg/mol MC as previously reported (1:3 HMW HAMC [M. D. Baumann, C. E. Kang, J. C. Stanwick, Y. Wang, H. Kim, Y. Lapitsky, and M. S. Shoichet, An injectable drug delivery platform for sustained combination therapy, J Control Release. (2009)]. Briefly, MC and HA were sequentially mechanically dispersed in aCSF and allowed to dissolve at 4° C. To form composite 1:3 HMW HAMC, slurries of particles were added together for a final concentration of 100 mg/mL. PLGA nanoparticles were prepared from a w/o/w double emulsion as previously described [[…]], either as blank nanoparticles or encapsulating FGF2.
All animal procedures were performed in accordance with the Guide to the Care and Use of Experimental Animals (Canadian Council on Animal Care) and protocols were approved by the Animal Care Committee of the Research Institute of the University Health Network. […] Blood vessels were then counted in the dorsal horns of the spinal cord (See FIG. 8). Statistical significance was determined by ANOVA followed by Tukey's post-hoc test.

Row | Compound | release mechanism of dissolved drug ([1]; dissolved in 2:3 HMW HAMC) | normalized diffusion coefficient [2] | duration of in vitro release of PLGA particle encapsulated drug ([1]; PLGA particles dispersed in composite 2:3 HMW HAMC) | burst release from PLGA particles in composite versus free particles [1] | Particle Size (μm) [3] | time to complete in vitro release of dissolved drug ([1]; dissolved in 2:3 HMW HAMC, aCSF, 37 °C) | mature blood vessels in the dorsal horns (angiogenesis) [4]
1 | 2,3-Dioxo-6-nitro-1,2,3,4-tetrahydrobenzo[f]quinoxaline-7-sulfonamide disodium salt [NBQX, reference compound] | diffusion limited | ~0.1 |  |  |  |  | 
2 | CCCC(=O)Nc1ncnc2c1ncn2[C@@H]1O[C@@H]2COP(=O)([O-])O[C@H]2[C@H]1OC(=O)CCC.[Na+] [dbcAMP, N^6,2′-O-dibutyryladenosine 3′,5′-cyclic monophosphate sodium salt, reference compound] |  |  | 28 days | reduction in burst release | 37 ± 14 μm |  | 
3 | EGF: Recombinant human epidermal growth factor |  |  |  | atypical behaviour | 10 ± 2 μm |  | 
4 | FGF-2: Recombinant human basic fibroblast growth factor | diffusion limited | ~0.1 |  |  |  | ≤ 4 days | results in angiogenesis; also recorded: enhanced blood vessels
